Publication PMC6778101 (Nature Communications, 2019)
“Also recorded” adds a separate entry of the source. Ends that are not written are not given here. Peptide text beside a SMILES is read from it.

Experiments:
E. coli mutD5 = assay: Laboratory evolution of resistance in mutator strain, MIC fold change; type: cell-based, Escherichia coli; settings: for MIC fold change after the evolution: mutD5 mutator strain (*)
Excerpt: (§1) Unless otherwise indicated, we used E. coli K-12 BW25113 in all high-throughput experiments. To investigate the impact of mutation rate on evolution of AMP resistance, we initiated laboratory evolution with a mutator strain E. coli mutD5 that carries mutations in the dnaQ gene (L73W and A164V).
(§2) The evolutionary protocol was designed to avoid population extinction and to ensure that populations with the highest level of resistance were propagated further. Starting with a subinhibitory drug concentration (Supplementary Data 8), resulting in ~50% growth inhibition, 10 parallel populations per drug were allowed to grow in Minimal Salts medium for 72 h and 300 r.p.m. E. coli K-12 BW25113 and E. coli mutD5 populations were incubated at 30 °C, while E. coli ATCC 25922, S. enterica LT2, K. pneumonia ATCC 10031, and A. baumannii ATCC 17978 were incubated at 37 °C. […] Prior to each transfer, cell growth was monitored by measuring the optical density at 600 nm (OD600 value, Biotek Synergy 2 microplate reader). Only populations with the highest drug concentration (and reaching OD600 > 0.2) were selected for further evolution. A chess-board layout was used on the plate to monitor potential cross-contamination events. […] E. coli mutD5 was adapted to TPII, also in 10 parallel evolving populations.
(§3) MICs were determined using a standard serial broth dilution technique. Briefly, 11-step serial dilutions were prepared in 96-well microtiter plates with three replicates per strain and antimicrobial compound. Each experiment was repeated at least twice. 5 × 10^5 cells/mL were inoculated into each well, and the plates were incubated at 30 °C in case of E. coli K-12 BW25113, and its antibiotic and AMP-adapted lines, or 37 °C in case of the other bacterial species. Plates were shaken at 300 r.p.m. during incubation for 24 and 18 h, respectively. Cell growth was monitored by measuring the optical density (OD600 value, Biotek Synergy 2 microplate reader was used for this purpose). […] Relative MIC was calculated as follows: MICrelative = MICevolved/MICcontrol.

[1] = test system: E. coli ATCC 25922, S. enterica LT2, K. pneumoniae ATCC 10031, A. baumannii ATCC 17978; assay: Laboratory evolution in pathogenic bacteria, statements for all four pathogens together; type: cell-based; settings: all four pathogenic species
Excerpt: The tested pathogens initially sensitive to the AMPs and the antibiotics included Escherichia coli (ATCC® 25922™) (abbreviated as E. coli ATCC 25922), Salmonella enterica subsp. enterica serovar Typhimurium LT2 (abbreviated as S. enterica LT2), Klebsiella pneumoniae subsp. pneumoniae (Schroeter) Trevisan (ATCC® 10031™) (abbreviated as K. pneumoniae ATCC 10031) and Acinetobacter baumannii Bouvet and Grimont (ATCC® 17978™) (abbreviated as A. baumannii ATCC 17978).
as §2
MICs were determined using a standard serial broth dilution technique. Briefly, 11-step serial dilutions were prepared in 96-well microtiter plates with three replicates per strain and antimicrobial compound. Each experiment was repeated at least twice. […] Cell growth was monitored by measuring the optical density (OD600 value, Biotek Synergy 2 microplate reader was used for this purpose). […] Relative MIC was calculated as follows: MICrelative = MICevolved/MICcontrol.

[2] = test system: Streptococcus pyogenes ATCC 19653; type: cell-based; settings: broth dilution, 37 °C, 18 h
Protocol: as §1, §3

[3] = test system: Shigella sonnei HNCMB 25021; type: cell-based; settings: broth dilution, 37 °C, 18 h
Protocol: as §1, §3

[4] = test system: Staphylococcus aureus subsp. aureus ATCC 25923; type: cell-based; settings: broth dilution, 37 °C, 18 h
Protocol: as §1, §3

[5] = test system: Shigella flexneri HNCMB 20018; type: cell-based; settings: broth dilution, 37 °C, 18 h
Protocol: as §1, §3

[6] = test system: Escherichia coli ATCC BAA 2340; type: cell-based; settings: broth dilution, 37 °C, 18 h
Protocol: as §1, §3

[7] = test system: Enterobacter cloacae subsp. cloacae ATCC 13047; type: cell-based; settings: broth dilution, 37 °C, 18 h
Protocol: as §1, §3

[8] = test system: Klebsiella pneumoniae subsp. pneumoniae ATCC 700603; type: cell-based; settings: broth dilution, 37 °C, 18 h
Protocol: as §1, §3

Compound	resistance in evolved mutator populations (in words) (E. coli mutD5; 10 laboratory evolved E. coli K-12 mutD5 populations)	MIC fold change following 20 transfers (E. coli mutD5; Escherichia coli mutD5 mutator strain, parallel line 1 of 10) [fold]	MIC fold change after the evolution (E. coli mutD5; parallel-evolved line 1)	MIC fold change after the evolution (E. coli mutD5; parallel-evolved line 2)	MIC fold change after the evolution (E. coli mutD5; parallel-evolved line 3)	MIC fold change after the evolution (E. coli mutD5; parallel-evolved line 4)	MIC fold change after the evolution (E. coli mutD5; parallel-evolved line 5)	MIC fold change after the evolution (E. coli mutD5; parallel-evolved line 6)	MIC fold change after the evolution (E. coli mutD5; parallel-evolved line 7)	MIC fold change after the evolution (E. coli mutD5; parallel-evolved line 8)	MIC fold change after the evolution (E. coli mutD5; parallel-evolved line 9)	MIC fold change after the evolution (E. coli mutD5; parallel-evolved line 10)	resistance after laboratory evolution in pathogens (in words) [1]	MIC [2] [µM]	MIC [3] [µM]	MIC [4] [µM]	MIC [5] [µM]	MIC [6] [µM]	MIC [7] [µM]	MIC [8] [µM]
CC[C@H](C)[C@@H]1NC(=O)CNC(=O)[C@H](CCCNC(=N)N)NC(=O)[C@H](Cc2ccc(O)cc2)NC(=O)[C@@H]2CSSC[C@H](NC1=O)C(=O)N[C@@H](Cc1ccc(O)cc1)C(=O)N[C@@H](CCCNC(=N)N)C(=O)N[C@@H](CCCCN)C(=O)N[C@H](C(=O)N[C@@H](CCCNC(=N)N)C(N)=O)CSSC[C@H](NC(=O)[C@H](Cc1c[nH]c3ccccc13)NC(=O)[C@@H](N)CCCNC(=N)N)C(=O)N[C@@H](Cc1ccccc1)C(=O)N[C@@H](CCCNC(=N)N)C(=O)N[C@@H](C(C)C)C(=O)N2 [TPII, tachyplesin II] (HELM PEPTIDE1{R.W.C.F.R.V.C.Y.R.G.I.C.Y.R.K.C.R.[am]}$PEPTIDE1,PEPTIDE1,3:R3-16:R3|PEPTIDE1,PEPTIDE1,7:R3-12:R3$$$V2.0; N-terminus and C-terminus assumed; bridges inferred)	none of the 10 laboratory evolved mutator E. coli K-12 mutD5 populations displayed resistance; also recorded: failed to develop resistance	1.4	1	1	1	1	1	1	1	1	1	1	very low levels	–	–	–	–	–	–	–
SWLSKTAKKLENSAKKRISEGIAIAIQGGPR [CP1, Cecropin P1]	–	–	–	–	–	–	–	–	–	–	–	–	–	> 9.6	0.6 to 1.2	> 9.6	1.2	1.2	> 9.6	2.4
